Test results taken from patent publication US10071092B2, “Polymorphic forms of vortioxetine and its pharmaceutically acceptable salts” (ALEMBIC PHARMACEUTICALS LIMITED, priority 2014, dated 2018).
Structures can show the parent of a compound that is named as a salt.

Key:
[1] = Moisture content of the solid; format: physicochemical
Procedure: Thermo gravimetric analysis (TGA) used for estimation of solvent/water content of dried material is performed using a TA-instruments TGA-Q500 about 10 mg sample is heated 10°/min in an open pan under nitrogen flow.
Vortioxetine Adipate (30.0 g) and dichloromethane (450 ml) were charged in round bottom flask stirred it for 5 mins. Solution of NaOH (8.1 g in 300 ml water) and solution of NaCl (7.5 g in 75 ml water) were added into above resulting solution and stirred it till clear solution was observed. Organic layer was separated out. HBr in acetic acid (18 g) was added into organic layer and stirred it for 30 mins. Acetic acid (150 ml) was added into reaction mixture. Dichloromethane was distilled out atmospherically from reaction mixture. Acetic acid (200 ml) and water (50 ml) were added into the reaction mixture. Water (1250 ml) was taken into another round bottom flask at 30±5° C. and cooled to 7±3° C. Reaction mixture was added into water containing round bottom flask within 15-30 minutes at 7±3° C. and after addition, reaction mixture's temperature allowed to come to 20±2° C. Reaction mixture was stirred for 30 minutes at 20±2° C. Reaction mixture was filtered and washed it with water (50 ml). Solid was dried to get Vortioxetine Hydrobromide (Form Ad) under vacuum for 6-8 hrs at 45±3° C. (Moisture content of solid is less than 1.0% w/w) […]

[2] = Polymorphic stability on exposure to moisture; format: physicochemical
Procedure: Vortioxetine Adipate (30.0 g) and dichloromethane (450 ml) were charged in round bottom flask stirred it for 5 mins. Solution of NaOH (8.1 g in 300 ml water) and solution of NaCl (7.5 g in 75 ml water) were added into above resulting solution and stirred it till clear solution was observed. Organic layer was separated out. HBr in acetic acid (18 g) was added into organic layer and stirred it for 30 mins. Acetic acid (150 ml) was added into reaction mixture. Dichloromethane was distilled out atmospherically from reaction mixture. Acetic acid (200 ml) and water (50 ml) were added into the reaction mixture. Water (1250 ml) was taken into another round bottom flask at 30±5° C. and cooled to 7±3° C. Reaction mixture was added into water containing round bottom flask within 15-30 minutes at 7±3° C. and after addition, reaction mixture's temperature allowed to come to 20±2° C. Reaction mixture was stirred for 30 minutes at 20±2° C. Reaction mixture was filtered and washed it with water (50 ml). Solid was dried to get Vortioxetine Hydrobromide (Form Ad) under vacuum for 6-8 hrs at 45±3° C. (Moisture content of Vortioxetine Hydrobromide (Form Ad) is less than 1.0% w/w). Vortioxetine Hydrobromide (Form Ad) was exposed at 40% RH and 25° C. for 2 hours to get Vortioxetine Hydrobromide (Form A). (Moisture content of Vortioxetine Hydrobromide (Form A) is between 4.2-4.8% w/w)

Moisture content ([1]; after Form Ad was exposed at 40% RH and 25° C. for 2 hours) | Form change when exposed to moisture [2] | Moisture content ([1]; solid dried under vacuum for 6-8 hrs at 45±3° C.) | Structure (SMILES)
4.2-4.8 % w/w |  |  | Cc1ccc(Sc2ccccc2N2CCNCC2)c(C)c1 [Vortioxetine Hydrobromide (Form A), Vortioxetine Hydrobromide]
 | converts into form A | less than 1.0 % w/w | Cc1ccc(Sc2ccccc2N2CCNCC2)c(C)c1 [Vortioxetine Hydrobromide (Form Ad), Vortioxetine Hydrobromide]
